{
  "source": "patent US10101319B2",
  "about": "“Methods of detecting plasmodium infection” (Commonwealth Scientific and Industrial Research Organisation, priority 2013, dated 2018)",
  "key": {"P. falciparum": {"system": "P. falciparum", "details": "13 evaluable volunteers; cited from earlier work"}, "Plasmodium falciparum": {"system": "Plasmodium falciparum", "test": "GC-MS analysis of exhaled breath volatiles and PCR parasitaemia, Cohort 1, induced blood stage malaria, treated with OZ439", "assay_type": "in vivo, human", "details": "Cohort 1 compared with Cohort 2 (slower acting bisquinoline 4-aminoquinoline)", "procedure": "This research was a controlled study using a blood stage Plasmodium falciparum (BSPC) inoculum challenge to characterize the efficacy of two anti-malaria drugs against early Plasmodium falciparum blood stage infection. Investigation of breath volatiles was an “add-on” to the anti-malarial efficacy studies. The study was conducted in two cohorts (n=8 for Cohort 1 and n=7 for Cohort 2) using different anti-malaria drugs. The anti-malaria drug investigated in Cohort 1 was OZ439 and the drug used in Cohort 2 was Piperaquine. OZ439, as an artemisin derivative, is rapidly absorbed, acts rapidly and is short-lived in the body. Piperaquine is absorbed slowly and has a long half-life in the body. […]\nEach participant in the cohort was inoculated on Day 0 with ˜1,800 viable Plasmodium falciparum-infected human erythrocytes administered intravenously. On an outpatient basis, participants were monitored daily (AM) or morning (AM) and evening (PM), from day 3 until PCR positive for presence of malaria parasites, for adverse events and the unexpected early onset of symptoms, signs or parasitological evidence of malaria.\nOn the day designated for commencement of treatment, as determined by qPCR results (usually Day7/8 AM), participants were admitted to the study unit and confined for safety monitoring and anti-malaria drug administration with parasite load and drug levels being monitored. […]"}},
  "data": [
    {"molecule": "artemether-lumefantrine", "values": [
      {"measurement": "mean parasite reduction ratio", "setting": "P. falciparum", "value": 759}
    ]},
    {"molecule": "c1cc([C@H]2CC[C@]3(CC2)OO[C@]2(O3)C3CC4CC(C3)CC2C4)ccc1OCCN1CCOCC1", "note": "[OZ439]", "values": [
      {"measurement": "Decline in parasitaemia and thioether levels after drug", "setting": "Plasmodium falciparum", "value": "faster decline in parasitaemia and thioether levels"}
    ]},
    {"molecule": "atovaquone-proguanil", "values": [
      {"measurement": "mean parasite reduction ratio", "setting": "P. falciparum", "value": 17}
    ]}
  ]
}
